Columns and labels:
[1] = Drug uptake in anesthetized cynomolgus monkey brain occipital lobe after 202.5 mins postinjection; format: ADME, organism-based, Macaca fascicularis; details: in vivo, 3.375 h
[2] = Drug uptake in anesthetized cynomolgus monkey brain frontal lobe after 197.5 mins postinjection; format: ADME, organism-based, Macaca fascicularis; details: in vivo
Putamen [3] = experiment: Drug uptake in anesthetized cynomolgus monkey brain putamen after 182.5 mins postinjection; format: ADME, organism-based, Macaca fascicularis; details: in vivo
Putamen [4] = experiment: Drug uptake in anesthetized cynomolgus monkey brain putamen after 187.5 mins postinjection; format: ADME, organism-based, Macaca fascicularis; details: in vivo, 3.125 h
Putamen [5] = experiment: Drug uptake in anesthetized cynomolgus monkey brain putamen after 192.5 mins postinjection; format: ADME, organism-based, Macaca fascicularis; details: in vivo
Putamen [6] = experiment: Drug uptake in anesthetized cynomolgus monkey brain putamen after 197.5 mins postinjection; format: ADME, organism-based, Macaca fascicularis; details: in vivo
Putamen [7] = experiment: Drug uptake in anesthetized cynomolgus monkey brain putamen after 202.5 mins postinjection; format: ADME, organism-based, Macaca fascicularis; details: in vivo, 3.375 h
[8] = Drug uptake in awake rhesus monkey brain frontal lobe after 13.5 mins postinjection; format: ADME, organism-based, Macaca mulatta; details: in vivo, 0.225 h
[9] = Drug uptake in awake rhesus monkey brain frontal lobe after 25 mins postinjection; format: ADME, organism-based, Macaca mulatta; details: in vivo
[10] = Drug uptake in awake rhesus monkey brain frontal lobe after 65 mins postinjection; format: ADME, organism-based, Macaca mulatta; details: in vivo
[11] = Drug uptake in awake rhesus monkey brain medulla after 7.5 mins postinjection; format: ADME, organism-based, Macaca mulatta; details: in vivo, 0.125 h
Midbrain [12] = experiment: Drug uptake in anesthetized cynomolgus monkey brain midbrain after 182.5 mins postinjection; format: ADME, organism-based, Macaca fascicularis; details: in vivo
Midbrain [13] = experiment: Drug uptake in anesthetized cynomolgus monkey brain midbrain after 197.5 mins postinjection; format: ADME, organism-based, Macaca fascicularis; details: in vivo
Midbrain [14] = experiment: Drug uptake in anesthetized cynomolgus monkey brain midbrain after 202.5 mins postinjection; format: ADME, organism-based, Macaca fascicularis; details: in vivo, 3.375 h
Midbrain [15] = experiment: Drug uptake in anesthetized cynomolgus monkey brain midbrain after 207.5 mins postinjection; format: ADME, organism-based, Macaca fascicularis; details: in vivo
[16] = Drug uptake in awake rhesus monkey brain medulla after 85 mins postinjection; format: ADME, organism-based, Macaca mulatta; details: in vivo
[17] = Drug uptake in awake rhesus monkey brain medulla after 95 mins postinjection; format: ADME, organism-based, Macaca mulatta; details: in vivo
[18] = Drug uptake in awake rhesus monkey brain pons after 7.5 mins postinjection; format: ADME, organism-based, Macaca mulatta; details: in vivo, 0.125 h
[19] = Drug uptake in awake rhesus monkey brain pons after 25 mins postinjection; format: ADME, organism-based, Macaca mulatta; details: in vivo
[20] = Drug uptake in awake rhesus monkey brain pons after 65 mins postinjection; format: ADME, organism-based, Macaca mulatta; details: in vivo
[21] = Drug uptake in awake rhesus monkey brain midbrain after 35 mins postinjection; format: ADME, organism-based, Macaca mulatta; details: in vivo
[22] = Drug uptake in awake rhesus monkey brain midbrain after 55 mins postinjection; format: ADME, organism-based, Macaca mulatta; details: in vivo
[23] = Drug uptake in awake rhesus monkey brain midbrain after 85 mins postinjection; format: ADME, organism-based, Macaca mulatta; details: in vivo
[24] = Drug uptake in awake rhesus monkey brain midbrain after 105 mins postinjection; format: ADME, organism-based, Macaca mulatta; details: in vivo, 1.75 h
Pons [25] = experiment: Drug uptake in anesthetized cynomolgus monkey brain pons after 182.5 mins postinjection; format: ADME, organism-based, Macaca fascicularis; details: in vivo
Pons [26] = experiment: Drug uptake in anesthetized cynomolgus monkey brain pons after 197.5 mins postinjection; format: ADME, organism-based, Macaca fascicularis; details: in vivo
Pons [27] = experiment: Drug uptake in anesthetized cynomolgus monkey brain pons after 207.5 mins postinjection; format: ADME, organism-based, Macaca fascicularis; details: in vivo
[28] = Ratio of drug uptake in putamen to cerebellum in awake rhesus monkey after 45 mins postinjection; format: ADME, organism-based, Macaca mulatta; details: in vivo, 0.75 h
[29] = Ratio of drug uptake in putamen to cerebellum in awake rhesus monkey after 105 mins postinjection; format: ADME, organism-based, Macaca mulatta; details: in vivo, 1.75 h
[30] = Ratio of drug uptake in thalamus to cerebellum in awake rhesus monkey after 17.5 mins postinjection; format: ADME, organism-based, Macaca mulatta; details: in vivo
[31] = Drug uptake in awake rhesus monkey brain putamen after 65 mins postinjection; format: ADME, organism-based, Macaca mulatta; details: in vivo
[32] = Drug uptake in awake rhesus monkey brain putamen after 75 mins postinjection; format: ADME, organism-based, Macaca mulatta; details: in vivo, 1.25 h
[33] = Drug uptake in awake rhesus monkey brain putamen after 95 mins postinjection; format: ADME, organism-based, Macaca mulatta; details: in vivo
[34] = Drug uptake in awake rhesus monkey brain caudate after 4.5 mins postinjection; format: ADME, organism-based, Macaca mulatta, Caudate nucleus; details: in vivo, 0.075 h
[35] = Drug uptake in awake rhesus monkey brain caudate after 10.5 mins postinjection; format: ADME, organism-based, Macaca mulatta, Caudate nucleus; details: in vivo, 0.175 h
[36] = Drug uptake in awake rhesus monkey brain caudate after 13.5 mins postinjection; format: ADME, organism-based, Macaca mulatta, Caudate nucleus; details: in vivo, 0.225 h
[37] = Drug uptake in awake rhesus monkey brain caudate after 25 mins postinjection; format: ADME, organism-based, Macaca mulatta, Caudate nucleus; details: in vivo
[38] = Drug uptake in awake rhesus monkey brain caudate after 85 mins postinjection; format: ADME, organism-based, Macaca mulatta, Caudate nucleus; details: in vivo
[39] = Drug uptake in awake rhesus monkey brain caudate after 95 mins postinjection; format: ADME, organism-based, Macaca mulatta, Caudate nucleus; details: in vivo
[40] = Ratio of drug uptake in pons to cerebellum in awake rhesus monkey after 7.5 mins postinjection; format: ADME, organism-based, Macaca mulatta; details: in vivo, 0.125 h
Medulla [41] = experiment: Drug uptake in anesthetized cynomolgus monkey brain medulla after 192.5 mins postinjection; format: ADME, organism-based, Macaca fascicularis; details: in vivo
Medulla [42] = experiment: Drug uptake in anesthetized cynomolgus monkey brain medulla after 207.5 mins postinjection; format: ADME, organism-based, Macaca fascicularis; details: in vivo
[43] = Drug uptake in anesthetized cynomolgus monkey brain cerebellum after 182.5 mins postinjection; format: ADME, organism-based, Macaca fascicularis; details: in vivo
[44] = Drug uptake in anesthetized cynomolgus monkey brain cerebellum after 197.5 mins postinjection; format: ADME, organism-based, Macaca fascicularis; details: in vivo
[45] = Drug uptake in anesthetized cynomolgus monkey brain cerebellum after 202.5 mins postinjection; format: ADME, organism-based, Macaca fascicularis; details: in vivo, 3.375 h
[46] = Drug uptake in anesthetized cynomolgus monkey brain cerebellum after 207.5 mins postinjection; format: ADME, organism-based, Macaca fascicularis; details: in vivo
[47] = Ratio of drug uptake in thalamus to cerebellum in awake rhesus monkey after 105 mins postinjection; format: ADME, organism-based, Macaca mulatta; details: in vivo, 1.75 h
[48] = Drug uptake in awake rhesus monkey brain thalamus after 65 mins postinjection; format: ADME, organism-based, Macaca mulatta; details: in vivo
[49] = Drug uptake in awake rhesus monkey brain thalamus after 95 mins postinjection; format: ADME, organism-based, Macaca mulatta; details: in vivo
Caudate [50] = experiment: Drug uptake in anesthetized cynomolgus monkey brain caudate after 187.5 mins postinjection; format: ADME, organism-based, Macaca fascicularis, Caudate nucleus; details: in vivo, 3.125 h
Caudate [51] = experiment: Drug uptake in anesthetized cynomolgus monkey brain caudate after 197.5 mins postinjection; format: ADME, organism-based, Macaca fascicularis, Caudate nucleus; details: in vivo
Caudate [52] = experiment: Drug uptake in anesthetized cynomolgus monkey brain caudate after 207.5 mins postinjection; format: ADME, organism-based, Macaca fascicularis, Caudate nucleus; details: in vivo
[53] = Ratio of drug uptake in frontal lobe to cerebellum in awake rhesus monkey after 35 mins postinjection; format: ADME, organism-based, Macaca mulatta; details: in vivo
[54] = Ratio of drug uptake in medulla to cerebellum in awake rhesus monkey after 4.5 mins postinjection; format: ADME, organism-based, Macaca mulatta; details: in vivo, 0.075 h
[55] = Drug uptake in awake rhesus monkey brain cerebellum after 25 mins postinjection; format: ADME, organism-based, Macaca mulatta; details: in vivo
[56] = Ratio of drug uptake in midbrain to cerebellum in awake rhesus monkey after 85 mins postinjection; format: ADME, organism-based, Macaca mulatta; details: in vivo
Thalamus [57] = experiment: Drug uptake in anesthetized cynomolgus monkey brain thalamus after 187.5 mins postinjection; format: ADME, organism-based, Macaca fascicularis; details: in vivo, 3.125 h
Thalamus [58] = experiment: Drug uptake in anesthetized cynomolgus monkey brain thalamus after 192.5 mins postinjection; format: ADME, organism-based, Macaca fascicularis; details: in vivo
Thalamus [59] = experiment: Drug uptake in anesthetized cynomolgus monkey brain thalamus after 202.5 mins postinjection; format: ADME, organism-based, Macaca fascicularis; details: in vivo, 3.375 h
Thalamus [60] = experiment: Drug uptake in anesthetized cynomolgus monkey brain thalamus after 207.5 mins postinjection; format: ADME, organism-based, Macaca fascicularis; details: in vivo
[61] = Drug uptake in anesthetized cynomolgus monkey brain occipital lobe after 12.5 mins postinjection; format: ADME, organism-based, Macaca fascicularis; details: in vivo
[62] = Drug uptake in anesthetized cynomolgus monkey brain frontal lobe after 135 mins postinjection; format: ADME, organism-based, Macaca fascicularis; details: in vivo, 2.25 h
[63] = Drug uptake in anesthetized cynomolgus monkey brain occipital lobe after 185 mins postinjection; format: ADME, organism-based, Macaca fascicularis; details: in vivo
[64] = Drug uptake in anesthetized cynomolgus monkey brain cerebellum after 185 mins postinjection; format: ADME, organism-based, Macaca fascicularis; details: in vivo
[65] = Drug uptake in anesthetized cynomolgus monkey brain frontal lobe after 205 mins postinjection; format: ADME, organism-based, Macaca fascicularis; details: in vivo
[66] = Ratio of drug uptake in caudate to cerebellum in anesthetized cynomolgus monkey after 185 mins postinjection; format: ADME, organism-based, Macaca fascicularis; details: in vivo
[67] = Ratio of drug uptake in caudate to cerebellum in anesthetized cynomolgus monkey after 195 mins postinjection; format: ADME, organism-based, Macaca fascicularis; details: in vivo, 3.25 h
[68] = Drug uptake in anesthetized cynomolgus monkey brain cerebellum after 55 mins postinjection; format: ADME, organism-based, Macaca fascicularis; details: in vivo
[69] = Drug uptake in anesthetized cynomolgus monkey brain cerebellum after 145 mins postinjection; format: ADME, organism-based, Macaca fascicularis; details: in vivo
[70] = Ratio of drug uptake in thalamus to cerebellum in anesthetized cynomolgus monkey after 205 mins postinjection; format: ADME, organism-based, Macaca fascicularis; details: in vivo

SMILES: O=C(OCC[18F])C1C2CCC(CC1c1cccc(/C=C\I)c1)N2 (stereo not given)
- Drug uptake [1]: 1.33
- Drug uptake [2]: 1.58
- Drug uptake (Putamen [3]): 2.78
- Drug uptake (Putamen [4]): 2.77
- Drug uptake (Putamen [5]): 2.67
- Drug uptake (Putamen [6]): 2.63
- Drug uptake (Putamen [7]): 2.63
- Drug uptake [8]: 0.08
- Drug uptake [9]: 0.11
- Drug uptake [10]: 0.11
- Drug uptake [11]: 0.07
- Drug uptake (Midbrain [12]): 3.4
- Drug uptake (Midbrain [13]): 3.2
- Drug uptake (Midbrain [14]): 3.15
- Drug uptake (Midbrain [15]): 3.17
- Drug uptake [16]: 0.11
- Drug uptake [17]: 0.11
- Drug uptake [18]: 0.08
- Drug uptake [19]: 0.12
- Drug uptake [20]: 0.14
- Drug uptake [21]: 0.14
- Drug uptake [22]: 0.16
- Drug uptake [23]: 0.16
- Drug uptake [24]: 0.15
- Drug uptake (Pons [25]): 2.17
- Drug uptake (Pons [26]): 2.25
- Drug uptake (Pons [27]): 2.19
- Ratio [28]: 1.5
- Ratio [29]: 1.5
- Ratio [30]: 1.3
- Drug uptake [31]: 0.16
- Drug uptake [32]: 0.17
- Drug uptake [33]: 0.16
- Drug uptake [34]: 0.06
- Drug uptake [35]: 0.1
- Drug uptake [36]: 0.09
- Drug uptake [37]: 0.13
- Drug uptake [38]: 0.14
- Drug uptake [39]: 0.14
- Ratio [40]: 1
- Drug uptake (Medulla [41]): 2.52
- Drug uptake (Medulla [42]): 2.5
- Drug uptake [43]: 1.52
- Drug uptake [44]: 1.41
- Drug uptake [45]: 1.43
- Drug uptake [46]: 1.4
- Ratio [47]: 1.7
- Drug uptake [48]: 0.17
- Drug uptake [49]: 0.16
- Drug uptake (Caudate [50]): 2.26
- Drug uptake (Caudate [51]): 2.24
- Drug uptake (Caudate [52]): 2.16
- Ratio [53]: 1
- Ratio [54]: 1.1
- Drug uptake [55]: 0.11
- Ratio [56]: 1.6
- Drug uptake (Thalamus [57]): 2.65
- Drug uptake (Thalamus [58]): 2.56
- Drug uptake (Thalamus [59]): 2.52
- Drug uptake (Thalamus [60]): 2.43

SMILES: O=C(OCC[18F])C1C2CCC(CC1c1cccc(/C=C\Br)c1)N2 (stereo not given)
- Drug uptake [61]: 2.68
- Drug uptake [62]: 2.56
- Drug uptake [63]: 2.37
- Drug uptake [64]: 1.86
- Drug uptake [65]: 1.98
- Ratio [66]: 1.8
- Ratio [67]: 1.7
- Drug uptake [68]: 3.61
- Drug uptake [69]: 2.35
- Ratio [70]: 1.8

SMILES: O=C(OCCC[18F])C1C2CCC(CC1c1cccc(/C=C\I)c1)N2 (stereo not given)
- Drug uptake [61]: 3.6
- Drug uptake [62]: 2.35
- Drug uptake [63]: 2.39
- Drug uptake [64]: 2.18
- Drug uptake [65]: 1.89
- Ratio [66]: 1.3
- Ratio [67]: 1.3
- Drug uptake [68]: 4.31
- Drug uptake [69]: 2.4
- Ratio [70]: 1.6

Source: ChEMBL document CHEMBL1151757, “Synthesis, radiosynthesis, and biological evaluation of fluorine-18-labeled 2beta-carbo(fluoroalkoxy)-3beta-(3'-((Z)-2-haloethenyl)phenyl)nortropanes: candidate radioligands for in vivo imaging of the serotonin transporter with positron emission tomography” (J Med Chem, 2008)
